From patent US9000154B2, “Rho kinase inhibitors” (Boehringer Ingelheim International GmbH, priority 2010, dated 2015)
pIC50: −log10 of the molar value.

What follows are compounds tested against T1, ROCKII (1-543) (Homo sapiens, UniProt O75116) (assay: IMAP Assay (fluorescence polarization, FAM S6 peptide)). Conditions: IMAP FP, 1 nM ROCKII (1-543), 100 μM ATP; read-out: Assay 2 IC50.
Format: biochemical
Design: 3 nM ROCKII (1-543) diluted in kinase reaction buffer
Method: This assay is performed using FAM S6 substrate peptide (Catalogue #R7184) and IMAP FP Screening Express Kit detection reagents from Molecular Devices (Sunnyvale, Calif.) in IMAP kinase reaction buffer (Tris-HCl, pH 7.2, 10 mM MgCl2, 0.05% NaN3, 0.1% phosphate-free BSA) containing 1 mM DTT. Test compounds dissolved in neat DMSO at 0.3 mg/mL are serially diluted 1 to 3 for concentration response in 100% DMSO. The DMSO serial dilutions are further diluted 33.33-fold in kinase reaction buffer, and 10 μL of this buffer dilution is transferred to Corning black 96-well half area NBS plates for a final top concentration of 3 μg/mL in 1% DMSO. 10 μL aliquot of 3 nM ROCKII (1-543) diluted in kinase reaction buffer is added to each assay well for a final concentration of 1 nM kinase. 10 μL of a mixture of 600 nM FAM S6 peptide and 300 μM ATP diluted in kinase reaction buffer is added to each well for a final concentration of 200 nM peptide and 100 μM ATP. The kinase reaction mixture is incubated for 60 minutes at room temperature. Positive controls are reaction mixtures containing no test compound and negative controls (blanks) are reaction mixtures containing no kinase. The kinase reaction is stopped by addition of 60 μL IMAP progressive binding reagent (Catalog #R7284) diluted 400-fold in 1× Binding buffer A. After 30 min of incubation at room temperature, the plates are read for fluorescence polarization on Analyst Plate Reader using Ex 485 nm, Em 530 nm, and FL 505 dichroic mirror. The mP signals are converted to percent of control (POC) values using the formula: POC=100*(Signal−BCTRL)÷(PCTRL−BCTRL)
Where Signal is the test well signal, BCTRL is the average of background (negative control) well signals on the plate and PCTRL is the average of positive control well signals on the plate. For the concentration-responsive compounds, POC as a function of test compound concentration is fitted to a 4-parameter logistic equation of the form: Y=A+(B−A)/[1+(x/C)D]
Where A, B, C, and D are fitted parameters (parameter B is fixed at zero POC), and x and y are the independent and dependent variables, respectively. The IC50 is determined as the inflection point parameter, C.
Target sequence in this assay (O75116 1-543, species assumed): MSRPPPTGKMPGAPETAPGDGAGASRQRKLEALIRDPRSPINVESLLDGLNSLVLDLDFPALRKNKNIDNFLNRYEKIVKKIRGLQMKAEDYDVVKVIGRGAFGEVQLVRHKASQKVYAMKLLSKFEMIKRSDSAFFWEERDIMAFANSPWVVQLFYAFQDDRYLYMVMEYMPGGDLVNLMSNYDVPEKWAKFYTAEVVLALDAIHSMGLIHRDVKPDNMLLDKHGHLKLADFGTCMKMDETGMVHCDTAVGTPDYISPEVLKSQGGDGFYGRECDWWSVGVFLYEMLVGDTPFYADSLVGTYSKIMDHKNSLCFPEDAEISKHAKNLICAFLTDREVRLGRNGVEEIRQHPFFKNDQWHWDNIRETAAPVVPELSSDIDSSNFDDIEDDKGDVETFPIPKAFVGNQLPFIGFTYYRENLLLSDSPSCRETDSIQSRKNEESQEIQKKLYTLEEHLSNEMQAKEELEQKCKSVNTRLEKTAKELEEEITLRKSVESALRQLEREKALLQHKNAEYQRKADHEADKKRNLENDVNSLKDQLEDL
With `CN(C)[C@H]1CCc2nc(NC(=O)c3cccc(Cn4cc(-c5ccc(C#N)cc5)nn4)c3)sc2C1` [Compound 4, 3-[4-(4-Cyano-phenyl)-[1,2,3]triazol-1-ylmethyl]-N—((S)-6-dimethylamino-4,5,6,7-tetrahydro-benzothiazol-2-yl)-benzamide] the pIC50 was 9.31. Work on `COCCN(C)[C@H]1CCc2nc(NC(=O)c3cccc(Cn4cc(-c5ccc(C#N)cc5)cn4)c3)sc2C1` [Compound 46, 3-[4-(4-Cyano-phenyl)-pyrazol-1-ylmethyl]-N-{(S)-6-[(2-methoxy-ethyl)-methyl-amino]-4,5,6,7-tetrahydro-benzothiazol-2-yl}-benzamide] yielded a pIC50 of 9.47. `N#Cc1ccc(-c2cn(Cc3cccc(C(=O)Nc4nc5c(s4)C[C@@H](N4CCOCC4)CC5)c3)nn2)cc1` [Compound 8, 3-[4-(4-Cyano-phenyl)-[1,2,3]triazol-1-ylmethyl]-N—((S)-6-morpholin-4-yl-4,5,6,7-tetrahydro-benzothiazol-2-yl)-benzamide] gave a pIC50 of 9.00. For `CN1CCN(C2CCc3nc(NC(=O)c4cccc(Cn5cc(-c6ccc(C#N)cc6)cn5)c4)sc3C2)CC1` (stereo not drawn) [Compound 11, 3-[4-(4-Cyano-phenyl)-pyrazol-1-ylmethyl]-N-[6-(4-methyl-piperazin-1-yl)-4,5,6,7-tetrahydro-benzothiazol-2-yl]-benzamide], the pIC50 was 9.24. For `N#Cc1ccc(-c2cnn(Cc3cccc(C(=O)Nc4nc5c(s4)C[C@@H](N4CCOCC4)CC5)c3)c2)cc1` [Compound 7, 3-[4-(4-Cyano-phenyl)-pyrazol-1-ylmethyl]-N—((S)-6-morpholin-4-yl-4,5,6,7-tetrahydro-benzothiazol-2-yl)-benzamide], the pIC50 was 9.40. Compound `N#Cc1ccc(-c2cnn(Cc3cccc(C(=O)Nc4nc5c(s4)C[C@@H](N)CC5)c3)c2)cc1` [Compound 28, N—((S)-6-Amino-4,5,6,7-tetrahydro-benzothiazol-2-yl)-3-[4-(4-cyano-phenyl)-pyrazol-1-ylmethyl]-benzamide] has a pIC50 of 9.46. Work on `N#CCCN[C@H]1CCc2nc(NC(=O)c3cccc(Cn4cc(-c5ccc(C#N)cc5)cn4)c3)sc2C1` [Compound 33, N—[(S)-6-(2-Cyano-ethylamino)-4,5,6,7-tetrahydro-benzothiazol-2-yl]-3-[4-(4-cyano-phenyl)-pyrazol-1-ylmethyl]-benzamide] yielded a pIC50 of 9.46. Compound `N#Cc1ccc(-c2cn(Cc3cccc(C(=O)Nc4nc5c(s4)C[C@@H](N)CC5)c3)nn2)cc1` [Compound 29, N—((S)-6-Amino-4,5,6,7-tetrahydro-benzothiazol-2-yl)-3-[4-(4-cyano-henyl)-[1,2,3]triazol-1-ylmethyl]-benzamide] has a pIC50 of 9.14. `CN(C)[C@H]1CCc2nc(NC(=O)c3cccc(Cn4cc(-c5ccc(C#N)cc5)cn4)c3)sc2C1` [Compound 5, 3-[4-(4-Cyano-phenyl)-pyrazol-1-ylmethyl]-N—((S)-6-dimethylamino-4,5,6,7-tetrahydro-benzothiazol-2-yl)-benzamide] showed a pIC50 of 9.70. For `COCCN[C@H]1CCc2nc(NC(=O)c3cccc(Cn4cc(-c5ccc(C#N)cc5)nn4)c3)sc2C1` [Compound 48, 3-[4-(4-Cyano-phenyl)-[1,2,3]triazol-1-ylmethyl]-N—[(S)-6-(2-methoxy-ethylamino)-4,5,6,7-tetrahydro-benzothiazol-2-yl]-benzamide], the pIC50 was 9.49. For `N#CCCN[C@H]1CCc2nc(NC(=O)c3cccc(Cn4cc(-c5ccc(C#N)cc5)nn4)c3)sc2C1` [Compound 13, N—[(S)-6-(2-Cyano-ethylamino)-4,5,6,7-tetrahydro-benzothiazol-2-yl]-3-[4-(4-cyano-phenyl)-[1,2,3]triazol-1-ylmethyl]-benzamide], the pIC50 was 9.00. `CN1CCN(C2CCc3nc(NC(=O)c4cccc(Cn5cc(-c6ccc(C#N)cc6)nn5)c4)sc3C2)CC1` (stereo not drawn) [Compound 23, 3-[4-(4-Cyano-phenyl)-[1,2,3]triazol-1-ylmethyl]-N-[6-(4-methyl-piperazin-1-yl)-4,5,6,7-tetrahydro-benzothiazol-2-yl]-benzamide] showed a pIC50 of 8.89. Compound `COCCN(C)C1CCc2nc(NC(=O)c3cccc(Cn4cc(-c5ccc(C#N)cc5)cn4)c3)sc2C1` (stereo not drawn) [Compound 14, 3-[4-(4-Cyano-phenyl)-pyrazol-1-ylmethyl]-N-{6-[(2-methoxy-ethyl)-methyl-amino]-4,5,6,7-tetrahydro-benzothiazol-2-yl}-benzamide] has a pIC50 of 9.39. `N#Cc1ccc(-c2cnn(Cc3cccc(C(=O)Nc4nc5c(s4)C[C@@H](NCCC(F)(F)F)CC5)c3)c2)cc1` [Compound 20, 3-[4-(4-Cyano-phenyl)-pyrazol-1-ylmethyl]-N—[(S)-6-(3,3,3-trifluoro-propylamino)-4,5,6,7-tetrahydro-benzothiazol-2-yl]-benzamide] showed a pIC50 of 9.33. For `CN1CCN([C@H]2CCc3nc(NC(=O)c4cccc(Cn5cc(-c6ccc(C#N)cc6)cn5)c4)sc3C2)CC1` [Compound 25, 3-[4-(4-Cyano-phenyl)-pyrazol-1-ylmethyl]-N—[(S)-6-(4-methyl-piperazin-1-yl)-4,5,6,7-tetrahydro-benzothiazol-2-yl]-benzamide], the pIC50 was 9.19. For `CN(CCC(F)(F)F)[C@H]1CCc2nc(NC(=O)c3cccc(Cn4cc(-c5ccc(C#N)cc5)nn4)c3)sc2C1` [Compound 31, 3-[4-(4-Cyano-phenyl)-[1,2,3]triazol-1-ylmethyl]-N-{(S)-6-[methyl-(3,3,3-trifluoro-propyl)-amino]-4,5,6,7-tetrahydro-benzothiazol-2-yl}-benzamide], the pIC50 was 8.51.

What follows are compounds tested against T1, ROCKII (1-543) (assay: Luciferin-Luciferase Assay (PKLight ATP detection)). Conditions: 7.5 nM ROCKII (1-543), 750 nM ATP.
Format: biochemical
Design: ROCKII (1-543) (62,408 Da) was diluted in assay buffer
Method: 1. Luciferin-Luciferase Assay
The activity of ROCKII (1-543) kinase was measured utilizing Cambrex PKLight ATP Detection Reagent, a homogeneous assay technology using luciferin-luciferase to quantify residual ATP. The assay was performed in 384-well low-volume, white, non-binding surface microtiter plates (Corning). The assay buffer was 25 mM HEPES, pH 7.5, 10 mM MgCl2, 50 mM KCl, 0.2% BSA, 0.01% CHAPS, 100 μM Na3VO4 and 0.5 mM DTT. Test compounds, dissolved in neat DMSO at 500 μg/mL, were serially diluted for dose response for a final starting concentration of 3 μg/mL in 1% DMSO of assay buffer. ROCKII (1-543) (62,408 Da) was diluted in assay buffer to a final concentration of 7.5 nM in a total volume of 15 μL. Positive controls were reaction mixtures containing no test compound; negative controls (blanks) were reaction mixtures containing no kinase. After 15 minutes of pre-incubation of the test compounds with the kinase, a mixture of ATP and peptide substrate (AKRRRLSSLRA) in assay buffer was added to each well for a final concentration of 750 nM ATP and 500 nM peptide, respectively. After 90 minutes of incubation of the kinase reaction at 28° C. temperature, 10 μL of PKLight ATP Detection Reagent (warmed to room temperature previously) was added to each well. The assay plate was incubated at room temperature for additional 15 minutes and then read on an Analyst in luminescence mode. Dose-response experiments for each of the test compounds were conducted in quadruplet. IC50 values of test compounds represent 50% response of the positive control from the dose-response curve.
Target sequence in this assay (O75116 1-543): as the sequence (O75116 1-543, species assumed) above
`CN(C1CC1)C1CCc2nc(NC(=O)c3cccc(Cn4cc(-c5ccc(C#N)cc5)cn4)c3)sc2C1` (stereo not drawn) [Compound 67, 3-[4-(4-Cyano-phenyl)-pyrazol-1-ylmethyl]-N-[6-(cyclopropyl-methyl-amino)-4,5,6,7-tetrahydro-benzothiazol-2-yl]-benzamide] gave a pIC50 of 8.35. `COCCN(C)[C@@H]1CCc2nc(NC(=O)c3cccc(Cn4cc(-c5ccc(C#N)cc5)cn4)c3)sc2C1` [Compound 64, 3-[4-(4-Cyano-phenyl)-pyrazol-1-ylmethyl]-N-{(R)-6-[(2-methoxy-ethyl)-methyl-amino]-4,5,6,7-tetrahydro-benzothiazol-2-yl}-benzamide] showed a pIC50 of 8.70. For `CN(C1CC1)C1CCc2nc(NC(=O)c3cccc(Cn4cc(-c5ccc(C#N)cc5)nn4)c3)sc2C1` (stereo not drawn) [Compound 68, 3-[4-(4-Cyano-phenyl)-[1,2,3]triazol-1-ylmethyl]-N-[6-(cyclopropyl-methyl-amino)-4,5,6,7-tetrahydro-benzothiazol-2-yl]-benzamide], the pIC50 was 8.14. In the case of `CN(CC(F)F)C1CCc2nc(NC(=O)c3cccc(Cn4cc(-c5ccc(C#N)cc5)cn4)c3)sc2C1` (stereo not drawn) [Compound 59, 3-[4-(4-Cyano-phenyl)-pyrazol-1-ylmethyl]-N-{6-[(2,2-difluoro-ethyl)-methyl-amino]-4,5,6,7-tetrahydro-benzothiazol-2-yl}-benzamide], the pIC50 was 8.14. Compound `N#Cc1ccc(-c2cnn(Cc3cccc(C(=O)Nc4nc5c(s4)CC(N4CCCC(F)(F)C4)CC5)c3)c2)cc1` (stereo not drawn) [Compound 71, 3-[4-(4-Cyano-phenyl)-pyrazol-1-ylmethyl]-N-[6-(3,3-difluoro-piperidin-1-yl)-4,5,6,7-tetrahydro-benzothiazol-2-yl]-benzamide] has a pIC50 of 8.14.
